Source: the supplement of paper PMC11061612

Assays:
Assay in all cases: combination Emax (second highest fraction inhibited in the dose matrix, 72 h); higher = more inhibition; extreme values may be limits of the assay
LN-18 (Glioblastoma) = tested on: LN-18 (Glioblastoma)
In short: (§1)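 Cell lines grown in DMEM/F12 or RPMI with 10% FBS were plated in 1536-well plates and held 24 hours at 37°C, 5% CO2 before 72 hours of exposure to two-drug dose matrices, with DMSO typically at 0.2%. CellTiter-Glo 2.0 luminescence gave viability, which was converted to inhibition. Vehicle wells were set to 0 and blank wells to 1. Combination Emax is the second-highest inhibition in the matrix, and Bliss excess is the observed combination effect minus the expected EA + EB − EA·EB, where EA and EB are the single-agent effects.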

ES8 (Ewing's Sarcoma) = tested on: ES8 (Ewing's Sarcoma)
In short: as §1

[1] = tested on: BL-41 (Burkitt's Lymphoma)
In short: as §1

NCI-H2818 (Mesothelioma) = tested on: NCI-H2818 (Mesothelioma)
In short: as §1

[2] = tested on: HDQ-P1 (Breast Carcinoma)
In short: as §1

[3] = tested on: NCI-H847 (Small Cell Lung Carcinoma)
In short: as §1

ES1 (Ewing's Sarcoma) = tested on: ES1 (Ewing's Sarcoma)
In short: as §1

[4] = tested on: DND-41 (T-Lymphoblastic Leukemia)
In short: as §1

[5] = tested on: MOLT-16 (T-Lymphoblastic Leukemia)
In short: as §1

[6] = tested on: NCI-H1792 (Lung Adenocarcinoma)
In short: as §1

[7] = tested on: KM12 (Colorectal Carcinoma)
In short: as §1

[8] = tested on: SR (Other Blood Carcinomas)
In short: as §1

[9] = tested on: KCL-22 (Chronic Myelogenous Leukemia)
In short: as §1

[10] = tested on: DiFi (Colorectal Carcinoma)
In short: as §1

WM-115 (Melanoma) = tested on: WM-115 (Melanoma)
In short: as §1

[11] = tested on: GR-ST (B-Lymphoblastic Leukemia)
In short: as §1

TC-71 (Ewing's Sarcoma) = tested on: TC-71 (Ewing's Sarcoma)
In short: as §1

[12] = tested on: COLO-678 (Colorectal Carcinoma)
In short: as §1

[13] = tested on: MFM-223 (Breast Carcinoma)
In short: as §1

| SMILES | combination Emax (LN-18 (Glioblastoma)) | combination Emax (ES8 (Ewing's Sarcoma)) | combination Emax [1] | combination Emax (NCI-H2818 (Mesothelioma)) | combination Emax [2] | combination Emax [3] | combination Emax (ES1 (Ewing's Sarcoma)) | combination Emax [4] | combination Emax [5] | combination Emax [6] | combination Emax [7] | combination Emax [8] | combination Emax [9] | combination Emax [10] | combination Emax (WM-115 (Melanoma)) | combination Emax [11] | combination Emax (TC-71 (Ewing's Sarcoma)) | combination Emax [12] | combination Emax [13] |
| --- | --- | --- | --- | --- | --- | --- | --- | --- | --- | --- | --- | --- | --- | --- | --- | --- | --- | --- | --- |
| CCN(CCO)CCCOc1ccc2c(Nc3cc(CC(=O)Nc4cccc(F)c4)[nH]n3)ncnc2c1 [AZD2811] + C=CCn1c(=O)c2cnc(Nc3ccc(N4CCN(C)CC4)cc3)nc2n1-c1cccc(C(C)(C)O)n1 [AZD1775] (first compound max 1 µM, partner max 1 µM) | 0.458 | 1 | 1 | 0.276 | 0.522 | 1 | 0.779 | 0.902 | 1 | 0.608 | 0.705 | 0.991 | 0.932 | 0.671 | 0.193 | 0.789 | 0.857 | 0.278 | 0.56 |
| CCN(CCO)CCCOc1ccc2c(Nc3cc(CC(=O)Nc4cccc(F)c4)[nH]n3)ncnc2c1 [AZD2811] + C[C@@H]1COCCN1C2=NC(=NC(=C2)C3(CC3)[S@](=N)(=O)C)C4=C5C=CNC5=NC=C4 [AZD6738] (first compound max 1 µM, 7x7, partner max 10 µM) | 0.585 | 1 | 1 | 0.405 | 0.391 | 1 | 0.948 | 0.908 | 1 | 0.655 | 0.612 | 0.968 | 0.986 | 0.819 | 0.523 | 0.732 | 0.94 | 0.165 | 0.8 |
| CCN(CCO)CCCOc1ccc2c(Nc3cc(CC(=O)Nc4cccc(F)c4)[nH]n3)ncnc2c1 [AZD2811] + O=C(c1cc(Cc2n[nH]c(=O)c3ccccc23)ccc1F)N1CCN(C(=O)C2CC2)CC1 [Olaparib] (first compound max 1 µM, 7x7, partner max 10 µM) | 0.287 | 0.997 | 0.603 | 0.234 | 0.264 | 0.956 | 0.855 | 0.369 | 1 | 0.175 | 0.176 | 0.875 | 0.417 | 0.516 | 0.259 | 0.448 | 0.755 | 0.153 | 0.274 |
| C[C@@H]1COCCN1c1cc(C2([S@](C)(=N)=O)CC2)nc(-c2ccnc3[nH]ccc23)n1 [AZD6738] + O=C(c1cc(Cc2n[nH]c(=O)c3ccccc23)ccc1F)N1CCN(C(=O)C2CC2)CC1 [Olaparib] (first compound max 10 µM, 7x7, partner max 10 µM) | 0.877 | 0.895 | 1 | 0.45 | 0.512 | 0.978 | 0.99 | 0.947 | 1 | 0.707 | 0.615 | 0.97 | 0.909 | 0.775 | 0.518 | 0.803 | 0.887 | 0.159 | 0.773 |
| Cc1cc2ncnn2cc1Nc1ncc2c(n1)n(C1CCOCC1)c(=O)n2C [AZD7648] + C=CCn1c(=O)c2cnc(Nc3ccc(N4CCN(C)CC4)cc3)nc2n1-c1cccc(C(C)(C)O)n1 [AZD1775] (first compound max 10 µM, partner max 1 µM) | 0.366 | 0.691 | 1 | 0.462 | 0.567 | 1 | 0.639 | 0.813 | 1 | 0.715 | 0.764 | 0.986 | 0.937 | 0.821 | 0.469 | 0.772 | 0.496 | 0.27 | 0.69 |
| Cc1cc2ncnn2cc1Nc1ncc2c(n1)n(C1CCOCC1)c(=O)n2C [AZD7648] + CCN(CCO)CCCOc1ccc2c(Nc3cc(CC(=O)Nc4cccc(F)c4)[nH]n3)ncnc2c1 [AZD2811] (first compound max 10 µM, 7x7, partner max 1 µM) | 0.393 | 1 | 0.747 | 0.434 | 0.423 | 0.971 | 0.724 | 0.236 | 1 | 0.553 | 0.261 | 0.86 | 0.485 | 0.584 | 0.42 | 0.466 | 0.793 | 0.152 | 0.298 |
| Cc1cc2ncnn2cc1Nc1ncc2c(n1)n(C1CCOCC1)c(=O)n2C [AZD7648] + CN(C)CCCOc1ccc(-c2ccc3ncc4c(c3c2)n(C2CCOCC2)c(=O)n4C)cn1 [AZD0156] (first compound max 10 µM, 7x7, partner max 1 µM) | 0.17 | 0.408 | 0.269 | 0.368 | 0.403 | 0.663 | 0.478 | 0.242 | 0.511 | 0.469 | 0.241 | 0.377 | 0.332 | 0.273 | 0.328 | 0.489 | 0.246 | 0.0911 | 0.238 |
| Cc1cc2ncnn2cc1Nc1ncc2c(n1)n(C1CCOCC1)c(=O)n2C [AZD7648] + C[C@@H]1COCCN1C2=NC(=NC(=C2)C3(CC3)[S@](=N)(=O)C)C4=C5C=CNC5=NC=C4 [AZD6738] (first compound max 10 µM, 7x7, partner max 10 µM) | 0.272 | 0.798 | 1 | 0.43 | 0.468 | 1 | 0.913 | 0.894 | 1 | 0.696 | 0.636 | 0.924 | 0.983 | 0.842 | 0.571 | 0.743 | 0.835 | 0.175 | 0.832 |
| Cc1cc2ncnn2cc1Nc1ncc2c(n1)n(C1CCOCC1)c(=O)n2C [AZD7648] + O=C(c1cc(Cc2n[nH]c(=O)c3ccccc23)ccc1F)N1CCN(C(=O)C2CC2)CC1 [Olaparib] (first compound max 10 µM, 7x7, partner max 10 µM) | 0.132 | 0.814 | 0.14 | 0.328 | 0.41 | 0.853 | 0.686 | 0.26 | 0.633 | 0.322 | 0.21 | 0.514 | 0.25 | 0.258 | 0.229 | 0.472 | 0.6 | 0.132 | 0.172 |
| COc1cccc2c1C(=O)c1c(O)c3c(c(O)c1C2=O)C[C@@](O)(C(=O)CO)C[C@@H]3O[C@H]1C[C@H](N)[C@H](O)[C@H](C)O1 [Doxorubicin] + Cc1cc2ncnn2cc1Nc1ncc2c(n1)n(C1CCOCC1)c(=O)n2C [AZD7648] (first compound max 1 µM, 7x7, partner max 10 µM) | 0.33 | 0.935 | 1 | 0.694 | 0.682 | 0.961 | 1 | 0.889 | 1 | 0.923 | 0.936 | 0.994 | 0.932 | 0.701 | 0.678 | 0.69 | 0.965 | 0.715 | 0.671 |
| COc1cccc(OCCCN)c1-c1cc(Nc2cnc(C#N)cn2)n[nH]1 [Prexasertib] + C=CCn1c(=O)c2cnc(Nc3ccc(N4CCN(C)CC4)cc3)nc2n1-c1cccc(C(C)(C)O)n1 [AZD1775] (first compound max 1 µM, partner max 1 µM) | 0.807 | 0.945 | 1 | 0.359 | 0.856 | 1 | 1 | 0.88 | 1 | 0.915 | 0.862 | 1 | 0.997 | 0.92 | 0.614 | 0.82 | 1 | 0.307 | 0.897 |
| COc1cccc(OCCCN)c1-c1cc(Nc2cnc(C#N)cn2)n[nH]1 [Prexasertib] + CN(C)CCCOc1ccc(-c2ccc3ncc4c(c3c2)n(C2CCOCC2)c(=O)n4C)cn1 [AZD0156] (first compound max 1 µM, 7x7, partner max 1 µM) | 0.752 | 0.837 | 1 | 0.282 | 0.538 | 1 | 1 | 0.811 | 1 | 0.825 | 0.775 | 1 | 1 | 0.878 | 0.566 | 0.822 | 0.977 | 0.0457 | 0.74 |
| COc1cccc(OCCCN)c1-c1cc(Nc2cnc(C#N)cn2)n[nH]1 [Prexasertib] + C[C@@H]1COCCN1C2=NC(=NC(=C2)C3(CC3)[S@](=N)(=O)C)C4=C5C=CNC5=NC=C4 [AZD6738] (first compound max 1 µM, 7x7, partner max 10 µM) | 0.797 | 0.798 | 1 | 0.387 | 0.597 | 1 | 1 | 0.891 | 1 | 0.832 | 0.767 | 1 | 0.999 | 0.881 | 0.59 | 0.829 | 0.962 | 0.136 | 0.814 |
| COc1cccc(OCCCN)c1-c1cc(Nc2cnc(C#N)cn2)n[nH]1 [Prexasertib] + Cc1cc2ncnn2cc1Nc1ncc2c(n1)n(C1CCOCC1)c(=O)n2C [AZD7648] (first compound max 1 µM, 7x7, partner max 10 µM) | 0.75 | 0.842 | 1 | 0.344 | 0.612 | 1 | 1 | 0.844 | 1 | 0.87 | 0.796 | 1 | 1 | 0.864 | 0.59 | 0.806 | 0.945 | 0.0565 | 0.763 |
